Series [1] concerns Ehrlich–Lettre ascites carcinoma (EAC) cell line. Description: MTT anti-proliferative assay, EAC. In kind it is cell-based. To be noted: 48 h, incubated for 2 days, read-out: IC50 against EAC. The procedure: (§1) In vitro anti-proliferative assays of the cultured cell lines A549, EAC, SIHA and NIH3T3, under laboratory conditions, were performed. The cells were developed in Dulbecco’s Modified Eagle Medium (DMEM) (Gibco-Invitrogen, Austin, TX, USA), in addition with heat-inactivated Foetel Bovine Serum (Invitrogen, Waltham, MA, USA), Pen Strep and followed by the addition of NaHCO3 (0.40%). The resulting component was incubated at 37 °C and maintained at 97% humidity and 90% air atmosphere. Exactly 10 µM of the synthesized ligand HBMF and its complexes (C1–C4), prepared using DMSO as a solvent, was used initially to assess their cytotoxicity and anti-proliferative activity in vitro using the MTT assay as described previously. 5-fluorouracil was used as a positive control and an appropriate vehicle control.
(§2) The various cell lines, such as A549, EAC, SIHA and NI3T3, were used initially to investigate the extent of preliminary proliferation against the MTT assay. The synthesized ligand, the complexes, and 5-fluorouracil were treated with all four cell lines as mentioned above. The cells were treated in the absence and presence of the ligand and its complexes and were incubated for 2 days. The effect of the proliferating cells and the color change was investigated by adding 5 mg/mL of 3-(4,5-Dimethylthiazol-2-yl)-2,5-Diphenyltetrazolium Bromide (MTT) reagent.

Series [2] deals with A549 cell line. Description: MTT anti-proliferative assay, A549. In kind it is cell-based. As to conditions: Homo sapiens, A549, 48 h, incubated for 2 days, read-out: IC50 against A549. The procedure: as §1, §2
Background: Formazan colour is commonly taken as a measure of viable cells.

The subject of series [3] is NIH3T3 cell line. Kind of series: MTT anti-proliferative assay, NIH3T3. It is filed as cell-based. To be noted: Mus musculus, NIH3T3, 48 h, incubated for 2 days, read-out: IC50 against NIH3T3. The procedure:
as §1, §2

Series [4] deals with SIHA cell line. Description: MTT anti-proliferative assay, SIHA. In kind it is cell-based. To be noted: Homo sapiens, 48 h, incubated for 2 days, read-out: IC50 against SIHA. As for the experimental part: as §1, §2
Series [5] is described as follows: Solubility and stability observations. In kind it is physicochemical. The source says:
Scheme 1 depicts the general route for the preparation of HBMF. Neutralization of the aqueous solution of 2-(aminomethyl) benzimidazole hydrochloride (0.100 g, 0.4543 mmol) was done in the first step of synthesis using an aqueous solution of potassium carbonate (0.0753 g, 0.5451 mmol) and then mixed with a methanolic solution of 5-fluorosalicyladihyde (0.0630 g, 0.4543 mmol). The resulting mixture was stirred at room temperature using a magnetic stirrer. The yellow precipitate obtained was filtered off and washed with water followed by petroleum ether and dried under vacuum. The completion of the reaction was monitored on pre-coated silica gel plates by the thin layer chromatography (TLC) method using chloroform and methanol as the solvent system in the ratio (9:1). The Schiff base thus obtained was insoluble in water but soluble in methanol, DMSO, etc. Elemental analysis for HBMF (C15H11FN3O): Calculated (%): C, 62.91; H, 4.33; F, 7.05; N, 14.59; O, 5.90. Found (%): C, 62.95; H, 4.36; F, 7.09; N, 14.65; O, 5.94. ^1H NMR (CDCl3, 400 MHz) ð: 5.09 [C1] (s, 2H, CH2); 6.86 [C7 and C6] (dd, 2H, Ar-H); 7.04–7.06 [C12 and C13] (t, 1H, Ar-H); 7.25 [C4] (d, 2H, Ar-H); 7.57 [C11] (d, 1H, Ar-H); 7.58 [C14] […]
Millimolar solutions of all the prepared metal complexes (C1-0.599, C2-0.615, C3-0.595, and C4-0.629 […]) were prepared using DMSO solvent and the conductance was measured (Table S1). […]

These results are taken from paper PMC9866693, “Novel Benzimidazole Derived Imine Ligand and Its Co(III) and Cu(II) Complexes as Anticancer Agents: Chemical Synthesis, DFT Studies, In Vitro and In Vivo Biological Investigations” (Pharmaceuticals, 2023).

As for `O=c1[nH]cc(F)c(=O)[nH]1` [5‐FU, 5-fluorouracil, reference compound], the IC50 (as a rule, the concentration that gives 50% inhibition) was 6.1 ± 1.8 µM in series [1], 7.2 ± 0.5 µM in series [2], 7.8 µM in series [3] and 6.2 ± 0.7 µM in series [4].
Consider `Oc1ccc(F)cc1/C=N/Cc1nc2ccccc2[nH]1` [HBMF, 2-((E)-((1H-benzo[d]-2-yl)methylimino)methyl)-4-fluorophenol], for which the half-inhibitory concentration (IC50) in series [1] is 48 ± 0.3 µM; in series [2], 54.21 ± 0.4 µM; in series [3], 52.6 ± 0.4 µM; in series [4], 53.4 ± 0.7 µM. Also, the “Solubility in methanol, DMSO” value in series [5] (methanol, DMSO, etc.) is on record as “soluble”. For the same compound, the Solubility in water result in series [5] (water) is “insoluble”.
